Test results: patent US20260152487A1 (Sitryx Therapeutics Limited, priority 2021, published 2026)

Assays:
recombinant human PKM2 = molecular target: T1, recombinant human PKM2 (Homo sapiens, UniProt P14618); assay: Human PKM2 activation assay (Kinase-Glo Plus luminescent detection of generated ATP); assay type: biochemical; settings: for Emax: percentage activation normalised to DMSO vehicle (LOW) and 5 μM TEPP-46 (HIGH), read-out: hPKM2 Emax; for EC50: recombinant human PKM2 activation, 4-parameter logistic fit, read-out: hPKM2 EC50
T1 construct: His (N); purchased R&D Systems
T1 sequence (P14618 2-531 limits assumed): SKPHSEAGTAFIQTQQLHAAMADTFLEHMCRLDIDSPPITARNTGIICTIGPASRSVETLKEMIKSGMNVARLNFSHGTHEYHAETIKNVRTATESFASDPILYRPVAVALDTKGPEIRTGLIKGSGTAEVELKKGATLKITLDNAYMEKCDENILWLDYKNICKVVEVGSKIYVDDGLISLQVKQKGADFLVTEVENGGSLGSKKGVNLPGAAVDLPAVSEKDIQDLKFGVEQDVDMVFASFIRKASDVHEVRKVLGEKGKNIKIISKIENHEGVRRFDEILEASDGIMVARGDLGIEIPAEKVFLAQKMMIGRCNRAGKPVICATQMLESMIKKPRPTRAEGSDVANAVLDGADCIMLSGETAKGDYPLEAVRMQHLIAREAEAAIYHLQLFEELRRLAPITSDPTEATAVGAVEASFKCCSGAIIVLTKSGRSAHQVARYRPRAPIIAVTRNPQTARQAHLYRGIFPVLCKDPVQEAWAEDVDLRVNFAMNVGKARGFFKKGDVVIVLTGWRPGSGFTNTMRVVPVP
Procedure, shortened: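 N-His-tagged recombinant hPKM2 ([…]) with PEP and ADP was incubated with compound for 60 min at 26 °C, shaking, in 50 mM imidazole, 50 mM KCl, 7 mM MgCl2, 0.01% Tween20, 0.05% BSA, pH 7.2. ATP produced was read by Kinase-Glo Plus luminescence after 15 min.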

A549 cells = assay: A549 cell proliferation in low-serine medium (CellTiter-Glo 2.0 viable cell number); assay type: cell-based; settings: Homo sapiens, 72 h, 3 days, Assay Medium with 20 μM L-serine
Description: The effect of compounds of Formula (Ia) on A549 cell proliferation in low-serine medium was assessed using a luminescence assay of viable cell number (CellTiter-Glo® 2.0, Promega) duplexed with a fluorescent cytotoxicity assessment (CelITox™ Green, Promega). Cell culture reagents were from ThermoFisher unless specified otherwise. Assay reagents were from Sigma-Aldrich unless specified otherwise. Test Compounds were prepared as 10 mM DMSO stocks and dilution series prepared in DMSO for direct dilution into culture medium.
Cells were passaged every 3-4 days at 80-90% confluence. The cell monolayer was washed twice with room-temperature Ca^2+/Mg-free PBS and 4 ml room-temperature trypsin-EDTA added to the flask. After 5 minutes' incubation (37° C., 5% CO2) to detach cells, trypsin was quenched with 13 ml warmed complete growth medium and the cells harvested and diluted to 2.4×10^4 cells/ml for dispensing into 384-well clear-bottom black-walled plates (600 cells/well).
Following overnight incubation, growth medium was aspirated from each well and the cells washed twice with Assay Medium comprising Basal Medium Eagle supplemented with 3% heat-inactivated dialysed FBS plus 2 mM L-glutamine plus 20 μM L-serine (Sigma-Aldrich). After aspiration of the final wash medium, Assay Medium containing Test Compound was added to each well. DMSO vehicle controls were included on each plate.
Cells were incubated for 3 days in a humidified incubator (37° C., 5% CO2) at which point CelITox™ Green and CellTiter-Glo® reagents were prepared according to the manufacturer's instructions. Triton-X was added to HIGH wells for cytotoxicity determination and the plate incubated for 30 minutes (20° C., ambient humidity and pCO2). CelITox™ Green reagent was added to each well and the plate covered, placed on an orbital shaker @450 rpm for 2 minutes, and incubated in the dark for 15 minutes (20° C., ambient humidity and pCO2). Endpoint fluorescence was measured using a plate reader (PHERAstar® FSX, BMG Labtech).
Following cytotoxicity determination, CellTiter-Glo® reagent was added to each well and the plate placed on an orbital shaker @450 rpm for 2 minutes to lyse cells. Plates were incubated in the dark for 15-30 minutes (20° C., ambient humidity and pCO2) prior to endpoint luminescence measurement (PHERAstar® FSX, BMG Labtech).
Proliferation was calculated by normalizing luminescence signals to LOW controls obtained from a parallel plate processed at the time of Test Compound challenge and HIGH (DMSO vehicle) wells from the compound plate. IC50 values were determined from a 4-parameter logistic fit of compound concentration-response curves.

SMILES	Emax (recombinant human PKM2) [%]	EC50 (recombinant human PKM2) [nM]	IC50 (A549 cells) [nM]
COc1ccc(S(=O)(=O)c2ccc3c(=O)n(Cc4cccnc4)ncc3c2)cc1 [Example 42, 6-((4-methoxyphenyl)sulfonyl)-2-(pyridin-3-ylmethyl)phthalazin-1(2H)-one]	103	64.5	1.5
COc1ccc(S(=O)(=O)c2ccc3c(=O)n(Cc4ccccc4N)ncc3c2)cc1 [Example 43, 2-(2-aminobenzyl)-6-((4-methoxyphenyl)sulfonyl)phthalazin-1(2H)-one]	111	42.5	1.7
COc1ccc(S(=O)(=O)c2ccc3c(=O)n(CCc4ccccc4)ncc3c2)cc1 [Example 44, 6-((4-methoxyphenyl)sulfonyl)-2-phenethylphthalazin-1(2H)-one]	63	367	41.8
COc1ccc(S(=O)(=O)c2ccc3c(=O)n(Cc4ccno4)ncc3c2)cc1 [Example 45, 2-(isoxazol-5-ylmethyl)-6-((4-methoxyphenyl)sulfonyl)phthalazin-1(2H)-one]	83.5	435	26.2
COc1ccc(S(=O)(=O)c2ccc3c(=O)n(Cc4cccc(OC)c4F)ncc3c2)cc1 [Example 52, 2-(2-fluoro-3-methoxybenzyl)-6-((4-methoxyphenyl)sulfonyl)phthalazin-1(2H)-one]	101	59.7	1.9
COc1ccc(S(=O)(=O)c2ccc3c(=O)n(Cc4c(F)cc(OC)cc4F)ncc3c2)cc1 [Example 53, 2-(2,6-difluoro-4-methoxybenzyl)-6-((4-methoxyphenyl)sulfonyl)phthalazin-1(2H)-one]	89.2	59.1	5.7
O=c1c2ccc(S(=O)(=O)c3ccccc3)cc2cnn1Cc1ccc2c(c1)OCO2 [Example 57, 2-(benzo[d][1,3]dioxol-5-ylmethyl)-6-(phenylsulfonyl)phthalazin-1(2H)-one]	109	55	2.3
NC(=O)Cc1ccccc1Cn1ncc2cc(S(=O)(=O)c3ccccc3)ccc2c1=O [Example 61, 2-(2-((1-oxo-6-(phenylsulfonyl)phthalazin-2(1H)-yl)methyl)phenyl)acetamide]	67.2	564	15.8
O=c1c2ccc(S(=O)(=O)c3ccccc3)cc2cnn1Cc1ccc(OC(F)F)nc1 [Example 62, 2-((6-(difluoromethoxy)pyridin-3-yl)methyl)-6-(phenylsulfonyl)phthalazin-1(2H)-one]	89.5	38.7	2.5
CC1Cc2cc(Cn3ncc4cc(S(=O)(=O)c5ccccc5)ccc4c3=O)ccc2O1 (stereo not drawn) [Example 64, 2-((2-methyl-2,3-dihydrobenzofuran-5-yl)methyl)-6-(phenylsulfonyl)phthalazin-1(2H)-one]	96.4	45	2.1
O=c1c2ccc(S(=O)(=O)c3ccccc3)cc2cnn1Cc1cccnc1 [Example 65, 6-(phenylsulfonyl)-2-(pyridin-3-ylmethyl)phthalazin-1(2H)-one]	98.6	360	17.4
COCC(c1ccccc1)n1ncc2cc(S(=O)(=O)c3ccccc3)ccc2c1=O (stereo not drawn) [Example 67, 2-(2-methoxy-1-phenylethyl)-6-(phenylsulfonyl)phthalazin-1(2H)-one]	91.4	185	3.3
COc1ccc(S(=O)(=O)c2ccc3c(=O)n(Cc4ccn(C)n4)ncc3c2)cc1 [Example 72, 6-((4-methoxyphenyl)sulfonyl)-2-((1-methyl-1H-pyrazol-3-yl)methyl)phthalazin-1(2H)-one]	103	35.9	3.2
Cn1cc(Cl)c(Cn2ncc3cc(S(=O)(=O)c4ccccc4)ccc3c2=O)n1 [Example 76, 2-((4-chloro-1-methyl-1H-pyrazol-3-yl)methyl)-6-(phenylsulfonyl)phthalazin-1(2H)-one]	101	105	4.1
Cc1nc(Cn2ncc3cc(S(=O)(=O)c4ccccc4)ccc3c2=O)cs1 [Example 77, 2-((2-methylthiazol-4-yl)methyl)-6-(phenylsulfonyl)phthalazin-1(2H)-one]	106	63	4
O=c1c2ccc(S(=O)(=O)c3ccccc3)cc2cnn1C(F)(F)c1cccnc1 [Example 78, 2-(difluoro(pyridin-3-yl)methyl)-6-(phenylsulfonyl)phthalazin-1(2H)-one]	99	802	89.1
COc1ccccc1Cn1ncc2cc(S(=O)(=O)c3ccccc3)ccc2c1=O [Example 79, 2-(2-methoxybenzyl)-6-(phenylsulfonyl)phthalazin-1(2H)-one]	90.2	203	19.4

The remaining molecules from weak to strong by EC50 (recombinant human PKM2), led by results:

Emax (recombinant human PKM2) [%]	EC50 (recombinant human PKM2) [nM]	IC50 (A549 cells) [nM]	SMILES
88.6	477	41.8	O=c1c2ccc(S(=O)(=O)c3ccccc3)cc2cnn1Cc1ccc2cn[nH]c2c1 [Example 58, 2-((1H-indazol-6-yl)methyl)-6-(phenylsulfonyl)phthalazin-1(2H)-one]
76	234	4.8	COc1ccc(S(=O)(=O)c2ccc3c(=O)n(Cc4ccc(Cl)cc4F)ncc3c2)cc1 [Example 46, 2-(4-chloro-2-fluorobenzyl)-6-((4-methoxyphenyl)sulfonyl)phthalazin-1(2H)-one]
91.2	218	38.7	COc1ccc(C(C)n2ncc3cc(S(=O)(=O)c4ccccc4)ccc3c2=O)cn1 (stereo not drawn) [Example 74, 2-(1-(6-methoxypyridin-3-yl)ethyl)-6-(phenylsulfonyl)phthalazin-1(2H)-one]
101	167	4.3	O=c1c2ccc(S(=O)(=O)c3ccccc3)cc2cnn1Cc1ccccc1CCO [Example 63, 2-(2-(2-hydroxyethyl)benzyl)-6-(phenylsulfonyl)phthalazin-1(2H)-one]
88.5	115	4.3	NC(=O)c1ccccc1Cn1ncc2cc(S(=O)(=O)c3ccccc3)ccc2c1=O [Example 66, 2-((1-oxo-6-(phenylsulfonyl)phthalazin-2(1H)-yl)methyl)benzamide]
102	115	14.1	O=c1c2ccc(S(=O)(=O)c3ccccc3)cc2cnn1Cc1ccccc1 [Example 71, 2-benzyl-6-(phenylsulfonyl)phthalazin-1(2H)-one]
97.5	70.6	3.1	COc1ccc(S(=O)(=O)c2ccc3c(=O)n(Cc4ccccc4)ncc3c2)cc1 [Example 50, 2-benzyl-6-((4-methoxyphenyl)sulfonyl)phthalazin-1(2H)-one]
107	68.9	3.2	COc1ccc(Cn2ncc3cc(S(=O)(=O)c4ccccc4)ccc3c2=O)nc1 [Example 59, 2-((5-methoxypyridin-2-yl)methyl)-6-(phenylsulfonyl)phthalazin-1(2H)-one]
85.8	55.2	1.6	COc1ccc(S(=O)(=O)c2ccc3c(=O)n(Cc4n[nH]c5ccccc45)ncc3c2)cc1 [Example 48, 2-((1H-indazol-3-yl)methyl)-6-((4-methoxyphenyl)sulfonyl)phthalazin-1(2H)-one]
90	42.7	3.7	COc1ccc(S(=O)(=O)c2ccc3c(=O)n(Cc4cccc(OC(F)F)c4)ncc3c2)cc1 [Example 40, 2-(3-(difluoromethoxy)benzyl)-6-((4-methoxyphenyl)sulfonyl)phthalazin-1(2H)-one]
87.9	25.5	0.5	COc1ccc(S(=O)(=O)c2ccc3c(=O)n(Cc4ccc5c(c4)CCO5)ncc3c2)cc1 [Example 47, 2-((2,3-dihydrobenzofuran-5-yl)methyl)-6-((4-methoxyphenyl)sulfonyl)phthalazin-1(2H)-one]
104	24.1	3.5	COc1ccc(S(=O)(=O)c2ccc3c(=O)n(Cc4ccc(OC)nc4)ncc3c2)cc1 [Example 51, 6-((4-methoxyphenyl)sulfonyl)-2-((6-methoxypyridin-3-yl)methyl)phthalazin-1(2H)-one]
